According to patent US6593333B1, “Substituted anilino-quinazoline (or quinoline) compounds and use thereof” (Astrazeneca AB, priority 1998, dated 2003):
pIC50: −log10 of the molar value.

Tests used:
[1] = system: TNFα production, human peripheral blood mononuclear cells; experiment: PBMC test: inhibition of LPS-stimulated TNFα production; assay type: cell-based
Experimental: The ability of compounds of this invention to inhibit TNFα production was assessed by using human peripheral blood mononuclear cells which synthesise and secrete TNFα when stimulated with lipopolysaccharide.
Peripheral blood mononuclear cells (PBMC) were isolated from heparinised (10 units/ml heparin) human blood by density centrifugation (Lymphoprep™; Nycomed). Mononuclear cells were resuspended in culture medium [RPMI 1640 medium (Gibco) supplemented with 50 units/ml penicillin, 50 μg/ml streptomycin, 2 mM glutamine and 1% heat-inactivated human AB serum (Sigma H-1513)]. Compounds were solubilised in DMSO at a concentration of 50 mM, diluted 1:100 in culture medium and subsequently serial dilutions were made in culture medium containing 1% DMSO. PBMCs (2.4×10^5 cells in 160 μl culture medium) were incubated with 20 μl of varying concentrations of test compound (triplicate cultures) or 20 μl culture medium containing 1% DMSO (control wells) for 30 minutes at 37° C. in a humidified (5%CO2/95% air) incubator (Falcon 3072; 96 well flat-bottom tissue culture plates). 20 μl lipopolysaccharide [LPS E.Coli 0111:B4 (Sigma L-4130), final concentration 10 μg/ml] solubilised in culture medium was added to appropriate wells. 20 μl culture medium was added to “medium alone” control wells. Six “LPS alone” and four “medium alone” controls were included on each 96 well plate. Varying concentrations of a known TNFα inhibitor were included in each test, i.e. an inhibitor of the PDE Type IV enzyme (for example see Semmler, J. Wachtel. H and Endres, S., Int. J. Immunopharmac. (1993), 15(3), 409-413) or an inhibitor of pro TNFα convertase (for example, see McGeehan, G. M. et al. Nature (1994) 370, 558-561). Plates were incubated for 7 hours at 37° C. (humidified incubator) after which 100 μl of the supernatant was removed from each well and stored at −70° C. (96 well round-bottom plates; Corning 25850). TNFα levels were determined in each sample using a human TNFα ELISA (see WO92/10190 and Current Protocols in Molecular Biology, vol 2 by Frederick M. Ausbel et al., John Wiley and Sons Inc.).
% inhibition=(LPS alone−medium alone)−(test concentration−medium alone)/(LPS alone−medium alone)×100

p38α = target: T1, p38α (Homo sapiens, UniProt Q16539); experiment: In vitro enzyme assay, p38α kinase; assay type: biochemical
T1 construct: c-myc (N); 6His (N); made in house; host or cells: E. coli (PET vectors)
Experimental: The ability of compounds of the invention to inhibit the enzyme p38 kinase was assessed. Activity of particular test compounds against each of the p38α and p38β isoforms of the enzyme was determined.
Human recombinant MKK6 (GenBank Accesion Number G1209672) was isolated from Image clone 45578 (Genomics, 1996, 33, 151) and utilised to produce protein in the form of a GST fusion protein in a pGEX vector using analogous procedures to those disclosed by J. Han et al., Journal of Biological Chemistry, 1996, 271, 2886-2891. p38α (GenBank Accession Number G529039) and p38β (GenBank Accession Number G1469305) were isolated by PCR amplification of human lymphoblastoid cDNA (GenBank Accession Number GM1416) and human foetal brain cDNA [synthesised from mRNA (Clontech, catalogue no. 6525-1) using a Gibco superscript cDNA synthesis kit] respectively using oligonucleotides designed for the 5′ and 3′ ends of the human p38α and p38β genes using analogous procedures to those described by J. Han et al., Biochimica et Biophysica Acta, 1995, 1265, 224-227 and Y. Jiang et al., Journal of Biological Chemistry, 1996, 271, 17920-17926.
Both p38 protein isoforms were expressed in e coli in PET vectors. Human recombinant p38α and p38β isoforms were produced as 5′ c-myc, 6His tagged proteins. Both MKK6 and the p38 proteins were purified using standard protocols: the GST MKK6 was purified using a glutathione sepharose column and the p38 proteins were purified using nickel chelate columns.
The p38 enzymes were activated prior to use by incubation with MKK6 for 3 hours at 30° C. The unactivated coli-expressed MKK6 retained sufficient activity to fully activate both isoforms of p38. The activation incubate comprised p38α (10 μl of 10 mg/ml) or p38β (10 μl of 5 mg/ml) together with MKK6 (10 μl of 1 mg/ml), ‘Kinase buffer’ [100 μl; pH 7.4 buffer comprising Tris (50 mM), EGTA (0.1 mM), sodium orthovanadate (0.1 mM) and β-mercaptoethanol (0.1%)] and MgATP (30 μl of 50 mM Mg(OCOCH3)2 and 0.5 mM ATP). This produced enough activated p38 enzyme for 3 Microtiter plates.
Test compounds were solubilised in DMSO and 10 μl of a 1:10 diluted sample in ‘Kinase Buffer’ was added to a well in a Microtiter plate. […] The precipitated protein was phosphorylated by p38 kinase and test compounds were assessed for their ability to inhibit this phosphorylation. The plates were filtered using a Canberra Packard Unifilter and washed with 2% TCA, dried overnight and counted on a Top Count scintillation counter.
Test compounds were tested initially at a single dose and active compounds were retested to allow IC50 values to be determined.

T1 sequence (Q16539 whole entry): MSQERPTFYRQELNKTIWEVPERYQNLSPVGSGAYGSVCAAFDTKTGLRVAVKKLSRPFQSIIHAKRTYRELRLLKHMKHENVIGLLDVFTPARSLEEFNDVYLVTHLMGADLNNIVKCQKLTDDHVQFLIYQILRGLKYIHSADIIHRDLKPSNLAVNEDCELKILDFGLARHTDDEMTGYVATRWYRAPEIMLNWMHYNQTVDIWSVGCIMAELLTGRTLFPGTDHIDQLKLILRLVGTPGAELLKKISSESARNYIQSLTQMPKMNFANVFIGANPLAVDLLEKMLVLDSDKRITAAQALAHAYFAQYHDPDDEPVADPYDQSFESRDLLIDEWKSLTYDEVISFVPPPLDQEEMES

SMILES	pIC50 [1]	pIC50 (p38α)
CCC(=O)Nc1cc(Nc2ncnc3cc(OC)c(OC)cc23)ccc1F [Example 14]	5.49	5.47
COc1cc2ncnc(Nc3ccc(C)c(NC(=O)c4ccccc4)c3)c2cc1OC [Example 11]	5.44	5.89
COc1cc2c(Nc3cc(NC(=O)c4cccc(N(C)C)c4)ccc3C)ncnc2cc1OCCCN1CCOCC1 [Example 38]	5.70	7.00
COc1cc2c(Nc3cc(NC(=O)c4cccc(N(C)C)c4)ccc3C)ncnc2c(OC)c1OC [Example 24, 4-[2-Methyl-5-(3-dimethylaminobenzamido)anilino]-6,7,8-trimethoxyquinazoline]	5.28	6.70
